Experimental data from US7825260B2, “Aminopropanol derivatives as sphingosine-1-phosphate receptor modulators” (Novartis AG, priority 2003, dated 2010).

How the values were obtained:
[1] = target: T1, human S1P receptor EDG-1 (S1P1) (Homo sapiens, UniProt P21453); assay: S1P receptor profiling, GTP[γ-35S] binding SPA, S1P1; assay type: biochemical; settings: for S1P1 mode of action: Agon = agonist; for EC50: GTP[γ-35S] binding to membranes of transfected CHO or RH7777 cells
T1 construct: expressed in transfected cells
Description: (§1) Sphingosine-1-phosphate (S1P) Receptor Profiling
(§2) Agonist activities of compounds are tested on the human S1P receptors EDG-1 (S1P1), EDG-3 (S1P3), EDG-5 (S1P2), EDG-6 (S1P4) and EDG-8 (S1P5). […] The assay technology used is SPA (scintillation proximity based assay). Briefly, DMSO dissolved compounds are serially diluted and added to SPA-bead (Amersham-Pharmacia) immobilised S1P receptor expressing membrane protein (10-20 μg/well) in the presence of 50 mM Hepes, 100 mM NaCl, 10 mM MgCl2, 10 μM GDP, 0.1% fat free BSA and 0.2 nM GTP [γ-^35S] (1200 Ci/mmol). After incubation in 96 well microtiterplates at RT for 120 min, unbound GTP [γ-^35S] is separated by a centrifugation step. Luminescence of SPA beads triggered by membrane bound GTP [γ-^35S] is quantified with a TOPcount plate reader (Packard). EC50s are calculated using standard curve fitting software. In this assay, the compounds of formula I have a binding affinity to S1P1 receptor <50 nM.

[2] = target: T2, human S1P receptor EDG-8 (S1P5) (Homo sapiens, UniProt Q9H228); assay: S1P receptor profiling, GTP[γ-35S] binding SPA, S1P5; assay type: biochemical; settings: for S1P5 mode of action: Agon = agonist; for EC50: GTP[γ-35S] binding to membranes of transfected CHO or RH7777 cells
T2 construct: expressed in transfected cells
Description: as §1, §2

[3] = target: T3, human S1P receptor EDG-3 (S1P3) (Homo sapiens, UniProt Q99500); assay: S1P receptor profiling, GTP[γ-35S] binding SPA, S1P3; assay type: biochemical; settings: for S1P3 mode of action: Agon = agonist; for EC50: GTP[γ-35S] binding to membranes of transfected CHO or RH7777 cells
T3 construct: expressed in transfected cells
Description: as §1, §2

[4] = target: T4, human S1P receptor EDG-6 (S1P4) (Homo sapiens, UniProt O95977); assay: S1P receptor profiling, GTP[γ-35S] binding SPA, S1P4; assay type: biochemical; settings: for S1P4 mode of action: Agon = agonist; for EC50: GTP[γ-35S] binding to membranes of transfected CHO or RH7777 cells
T4 construct: expressed in transfected cells
T4 sequence (O95977 1-384): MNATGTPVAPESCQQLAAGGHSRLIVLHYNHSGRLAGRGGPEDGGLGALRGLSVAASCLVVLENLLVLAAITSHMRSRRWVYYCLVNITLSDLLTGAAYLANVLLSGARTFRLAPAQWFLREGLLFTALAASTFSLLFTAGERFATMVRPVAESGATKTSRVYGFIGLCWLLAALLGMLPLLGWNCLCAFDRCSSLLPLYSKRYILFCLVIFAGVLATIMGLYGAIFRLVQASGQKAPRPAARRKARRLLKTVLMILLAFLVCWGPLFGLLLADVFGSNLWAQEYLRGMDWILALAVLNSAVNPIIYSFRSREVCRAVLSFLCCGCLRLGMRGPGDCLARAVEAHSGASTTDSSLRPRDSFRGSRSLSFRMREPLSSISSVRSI
Description: as §1, §2

[5] = system: peripheral blood lymphocytes; assay: In vivo: Blood Lymphocyte Depletion; settings: rats, p.o.
Description: B. In vivo: Blood Lymphocyte Depletion
A compound of formula I or the vehicle is administered orally by gavage to rats. Tail blood for hematological monitoring is obtained on day −1 to give the baseline individual values, and at 2, 6, 24, 48 and 72 hours after application. In this assay, the compounds of formula I deplete peripheral blood lymphocytes when administered at a dose of 0.03 to 3 mg/kg. For example, following results are obtained: depletion of peripheral blood lymphocytes by more than 50%.

T2 sequence (Q9H228 whole entry): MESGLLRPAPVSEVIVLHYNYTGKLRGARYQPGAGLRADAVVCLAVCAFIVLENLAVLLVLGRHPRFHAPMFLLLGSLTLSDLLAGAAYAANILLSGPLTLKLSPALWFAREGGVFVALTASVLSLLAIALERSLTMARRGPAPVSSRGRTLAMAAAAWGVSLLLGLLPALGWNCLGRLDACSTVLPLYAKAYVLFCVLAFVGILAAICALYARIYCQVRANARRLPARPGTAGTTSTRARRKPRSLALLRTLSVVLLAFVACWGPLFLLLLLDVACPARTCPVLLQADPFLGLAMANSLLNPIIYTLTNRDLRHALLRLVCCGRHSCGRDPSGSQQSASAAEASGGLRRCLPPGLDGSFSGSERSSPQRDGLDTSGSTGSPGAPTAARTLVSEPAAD
T3 sequence (Q99500 whole entry): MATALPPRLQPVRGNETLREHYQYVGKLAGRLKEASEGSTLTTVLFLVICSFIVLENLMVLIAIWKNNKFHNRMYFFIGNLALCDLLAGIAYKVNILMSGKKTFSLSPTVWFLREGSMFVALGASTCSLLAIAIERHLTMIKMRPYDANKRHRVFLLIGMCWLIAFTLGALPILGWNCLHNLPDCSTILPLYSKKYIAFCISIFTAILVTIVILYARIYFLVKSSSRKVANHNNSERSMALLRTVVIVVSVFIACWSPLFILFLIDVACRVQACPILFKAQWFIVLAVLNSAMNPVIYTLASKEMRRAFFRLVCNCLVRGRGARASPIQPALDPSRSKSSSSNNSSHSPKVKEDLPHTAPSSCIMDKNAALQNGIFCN
T1 sequence (P21453 whole entry): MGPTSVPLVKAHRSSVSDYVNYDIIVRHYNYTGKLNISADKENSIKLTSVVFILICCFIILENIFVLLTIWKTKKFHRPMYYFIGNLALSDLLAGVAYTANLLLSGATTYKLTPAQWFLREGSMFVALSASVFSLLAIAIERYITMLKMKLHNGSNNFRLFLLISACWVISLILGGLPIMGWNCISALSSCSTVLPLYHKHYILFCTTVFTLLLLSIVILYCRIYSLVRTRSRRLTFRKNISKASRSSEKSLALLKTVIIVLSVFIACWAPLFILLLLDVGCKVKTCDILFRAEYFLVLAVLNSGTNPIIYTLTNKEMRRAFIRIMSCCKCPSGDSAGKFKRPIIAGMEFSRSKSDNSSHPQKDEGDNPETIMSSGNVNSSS

Compound	S1P1 mode of action [1]	EC50 [1] [nM]	S1P5 mode of action [2]	EC50 [2] [nM]	S1P3 mode of action [3]	EC50 [3] [nM]	S1P4 mode of action [4]	EC50 [4] [nM]	melting point [°C]	dose giving depletion of peripheral blood lymphocytes by more than 50% ([5]; after 6 h)	dose giving depletion of peripheral blood lymphocytes by more than 50% ([5]; after 48 h) [mg/kg after 48 h]	dose giving depletion of peripheral blood lymphocytes by more than 50% ([5]; after 24 h)
C[C@@](N)(CCc1ccc2oc(-c3ccccc3)cc2c1)COP(=O)(O)O [Example 49, Phosphoric acid mono-[(R)-2-amino-2-methyl-4-(2-phenyl-benzofuran-5-yl)-butyl]ester]	Agon	1.6	Agon	0.4	Agon	1180	Agon	0.7	–	–	–	–
C[C@@](N)(CCc1ccc2cc(OCCCC(F)(F)C(F)(F)F)ccc2c1)COP(=O)(O)O [Example 13]	Agon	0.06	Agon	0.4	Agon	5.7	Agon	1.2	–	–	–	–
CCCCCOc1ccc2cc(CC[C@@](C)(N)COP(=O)(O)O)ccc2c1 [Example 12, Phosphoric acid mono-[(R)-2-amino-2-methyl-4-(6-pentyloxynaphthalen-2-yl)but-1-yl]ester]	Agon	0.3	Agon	0.1	Agon	8.4	Agon	0.4	266 to 267	–	–	–
C[C@](N)(CO)CCc1ccc2oc(-c3ccc4c(c3)OCO4)nc2c1 [Example 25, (R)-2-Amino-4-(2-benzo[1,3]dioxol-5-yl-benzoxazol-5-yl)-2-methyl-butan-1-ol]	–	–	–	–	–	–	–	–	–	0.06 mg/kg p.o. after 6 h	0.3	–
CCCCCOc1ccc2cc(CC[C@@](C)(N)CO)ccc2c1 [Example 1, (R)-2-amino-2-methyl-4-(6-pentyloxynaphthalen-2-yl)butan-1-ol]	–	–	–	–	–	–	–	–	–	0.02 mg/kg p.o. after 6 h,	>1	0.3 mg/kg p.o. after 24 h,
CCOc1cccc(-c2nc3cc(CC[C@@](C)(N)CO)ccc3o2)c1 [Example 26, (R)-2-Amino-4-[2-(3-ethoxy-phenyl)-benzoxazol-5-yl]-2-methyl-butan-1-ol]	–	–	–	–	–	–	–	–	–	0.03 mg/kg p.o. after 6 h	0.2	–
C[C@](N)(CO)CCc1ccc2oc(-c3ccccc3)cc2c1 [Example 37, (R)-2-Amino-2-methyl-4-(2-phenyl-benzofuran-5-yl)-butan-1-ol]	–	–	–	–	–	–	–	–	–	0.40 mg/kg p.o. after 6 h	–	–
CCCOc1ccc2cc(CC[C@@](C)(N)COP(=O)(O)O)ccc2c1 [Example 14]	Agon	2.8	Agon	0.8	inverse	47	Agon	1	–	–	–	–
CCCCCc1nc2cc(CC[C@@](C)(N)COP(=O)(O)O)ccc2o1 [Example 42, Phosphoric acid mono-[(R)-2-amino-2-methyl-4-(2-pentyl-benzoxazol-5-yl)-butyl]ester]	Agon	17	Agon	5	Agon	> 1000	Agon	9	–	–	–	–
